The data set deals with Charles River CD-1 mice. Kind of data set: Intravenous acute tolerance in mice (LD50). The protocol:
The relative toxicities of free metal, free ligand, metal chelate contrast agent and excipient of the present invention were determined by injecting samples of each into the tail vein of Charles River CD-1 mice (18-23 g, 25-35 days) at 0.02 mL/g. The observation period was 14 days.

Setting [1] is: intravenous (tail vein) at 0.02 mL/g, CD-1 mice, 14 days observation, physiologic pH.

Turning to `[Ca+2].[Cl-].[Cl-]` [CaCl2], the LD50 under setting [1] is 1.5 mmol/kg. As for `O=C([O-])CN1CCNCCN(CC(=O)[O-])CCN(CC(=O)[O-])CC1.O=C([O-])CN1CCNCCN(CC(=O)[O-])CCN(CC(=O)[O-])CC1.[Ca+2].[Ca+2].[Ca+2]` [Ca[Ca(DO3A)]2, Calcium bis[1,4,7,10-tetraazacyclododecane-1,4,7-triacetatocalcium(II)]], the LD50 under setting [1] worked out at 1.6 mmol/kg.

On to `CC(O)CN1CCN(CC(=O)[O-])CCN(CC(=O)[O-])CCN(CC(=O)[O-])CC1.CC(O)CN1CCN(CC(=O)[O-])CCN(CC(=O)[O-])CCN(CC(=O)[O-])CC1.[Ca+2].[Ca+2].[Ca+2]` (stereo not shown) [Ca[Ca(HP-DO3A)]2, Calcium bis[1,4,7-tris(carboxymethyl)-10-(2′-hydroxy)propyl-1,4,7,10-tetraazacyclododecanato-calcium(II)]], for which, under setting [1], the LD50 came out at 1.3 mmol/kg.

For the compound `O=C(O)CN1CCNCCN(CC(=O)O)CCN(CC(=O)O)CC1` [DO3A, 1,4,7,10-tetraazacyclododecane-1,4,7-triacetic acid], the LD50 (mouse, in vivo, iv) was 0.12 mmol/kg. In the case of `O=C(O)CN1CCN(CC(=O)O)CCN(CC(=O)O)CCN(CC(=O)O)CC1` [DOTA, 1,4,7,10-tetraazacyclododecane-N,N′N″,N″′-tetraacetic acid], under setting [1], the 50% lethal dose (LD50) stood at 0.18 mmol/kg. With `O=C([O-])CN1CCNCCN(CC(=O)[O-])CCN(CC(=O)[O-])CC1.[Gd+3]` [Gd(DO3A)], under setting [1], the LD50 is 5.7 mmol/kg. Under “summary of Table 1 data, intravenous in mice”, the “Tolerance (in words)” value is “highly tolerated”. Regarding `CC(O)CN1CCN(CC(=O)O)CCN(CC(=O)O)CCN(CC(=O)O)CC1.[Gd+3]` (stereo not shown) [Gd(HP-DO3A), Gadolinium(III) 1,4,7-tris(carboxymethyl)-10-(2′-hydroxypropyl)-1,4,7,10-tetraazacyclododecane], the 50% lethal dose (LD50) under setting [1] was found to be 10 mmol/kg.

With `[Gd+3].[OH-].[OH-].[OH-]` [Gd(OH)3], under setting [1], the median lethal dose (LD50) is 0.1 mmol/kg.

On to `CC(O)CN1CCN(CC(=O)O)CCN(CC(=O)O)CCN(CC(=O)O)CC1` (stereo not shown) [HP-DO3A, 1,4,7-tris-(carboxymethyl)-10-(2′-hydroxypropyl)-1,4,7,10-tetraazacyclododecane], for which, under “mouse, in vivo, iv”, the LD50 is 0.11 mmol/kg.

Source of the values: patent publication US7385041B2, “Dual functioning excipient for metal chelate contrast agents” (Bracco International B.V., priority 1990, dated 2008).
